Literature values as cited in patent US20250064731A1, “A LIQUID PHARMACEUTICAL FORMULATION OF CLONIDINE HYDROCHLORIDE” (NOVUMGEN LIMITED, priority 2022, published 2025).

Settings: after oral administration

SMILES: Clc1cccc(Cl)c1N=C1NCCN1 [clonidine, N-(2,6-dichlorophenyl)-4,5-dihydro-1H-imidazol-2-amine]
- absorption from the gastrointestinal tract: almost completely absorbed
- liver metabolism: rapid liver metabolism
